Test results as given in article PMC11496873, “Synthesis, characterization, and in vitro–in ovo toxicological screening of silibinin fatty acids conjugates as prodrugs with potential biomedical applications” (Biomolecules and Biomedicine, 2024).
Where two headings read alike, the source gives them in different places.

Assays:
[1] = system: chorioallantoic membrane (CAM); assay: In ovo irritation test (HET-CAM); format: in vivo, chicken; details: SIL-O and SIL-L at 100 µM
Procedure: The potential irritant effect of SIL-O and SIL-L (100 µM) was assessed in ovo, by applying the Hen’s Egg Test – Chorioallantoic Membrane (HET-CAM) test. The applied procedure was also described by Breban-Schwarzkopf et al.. Briefly, chicken-fertilized eggs were cleaned and disinfected with ethanol 70% and placed in an incubator at 37 ^∘C and 60% humidity. On the fourth day of incubation, a cut was performed on the eggs’ tips to allow the extraction of 6–7 mL albumen, while on the fifth day, a window was cut on the upper side of each egg and covered with adhesive tape. The experiment was performed on the tenth day of incubation, by applying the samples directly on the chorioallantoic membrane (CAM) and analyzing the occurrence of vascular impairments, such as hemorrhage, lysis, and coagulation for 5 min. Representative pictures were taken before the start of the experiment (T0) and at its end (T5) using the Discovery 8 SteREO Microscope equipped with an Axio CAM 105 color camera and processed in ZEN core version 3.8 software (Zeiss, Göttingen, Germany). The irritant potential was determined by calculating the irritation score (IS) for each sample and interpreted as presented in a previous publication.

[2] = system: HaCaT cells; design: method as in earlier work; details: 24 h, cited from earlier work
[3] = design: method as in PMID 19601873; details: buffers with pH 1.0–7.8 and physiological media (plasma, intestinal and liver fluids); cited from earlier work
[4] = system: HaCaT cells; assay: Cell migration (scratch) assay; format: cell-based, human; details: 24 h
Procedure: (§1) To investigate the effect of SIL, SIL-O, and SIL-L treatments on the migration of H9c2(2-1), HepaRG, and HaCaT cells, the scratch assay was performed as follows: (A) the cells (10^5 cells/mL/well) were seeded in Corning Costar 24-well plates and left to attach and reach a proper confluence, (B) a scratch was automatically made in every well using the AutoScratch™ Wound Making Tool (BioTek Instruments Inc., Winooski, VT, USA), (C) the cells were exposed to SIL and its FAs derivatives 1, 10, and 25 µM for 24 h, and (D) the wound area was imaged at two time points (0 and 24 h) using Cytation 1 Imaging Reader (BioTek® Instruments Inc., Winooski, VT, USA). The Gen5 ™ Microplate Data Collection and Analysis Software (BioTek® Instruments Inc., Winooski, VT, USA) was used to measure the wound widths in each image. The migration rates (%) for the applied treatments were determined using the formula presented below and normalized to control.
(§2) Migration rate (%) ═ [drawing 2] ×100, where:
(§3) At0 ═ wound width at 0 h,
(§4) At24 ═ wound width at 24 h.

[5] = system: HK-2 human renal tubular endothelial cells; design: method as in PMID 32103902; details: HK-2 cells, 60 and 90 µM, 48 h; cited from earlier work
[6] = system: Madin–Darby Canine Kidney (MDCK) cells; design: method as in PMID 20036447; details: 800 µM, 2 h; cited from earlier work
[7] = system: HaCaT keratinocytes; assay: Hoechst 33342 nuclear staining, apoptotic index; format: cell-based, human; details: 100 µM, 24 h
Procedure: The influence of SIL, SIL-O, and SIL-L (100 µM) on nuclear morphology was evaluated by imaging the cells’ nuclei stained with Hoechst 33342. Shortly, at the end of the treatment, the H9c2(2-1), HepaRG, and HaCaT cells cultured in 12-well plates were treated with staining solution (500 µL/well, dilution of 1:2000 in PBS) for 10 min at room temperature, protected from light and washed with PBS before imaging which was performed on Cytation 1 Imaging Reader (BioTek Instruments Inc., Winooski, VT, USA). Image processing was conducted using the Gen5™ Microplate Data Collection and Analysis Software (BioTek Instruments Inc., Winooski, VT, USA). Apoptotic index (AI) was calculated by applying the formula previously reported: […]

[8] = system: LX-2 human hepatic stellate cells; design: method as in PMID 27746612; details: LX-2 cells, 10, 50 and 100 µM; cited from earlier work
[9] = system: H9c2 cells; design: method as in PMID 22818713; details: concentrations up to 200 µM, 48 h; cited from earlier work
[10] = system: HepaRG cells; assay: Cell migration (scratch) assay; format: cell-based; details: 24 h, normalized to control
Procedure: as §1, §2, §3, §4

[11] = system: H9c2(2-1) cells; assay: Cell migration (scratch) assay; format: cell-based; details: 24 h, normalized to control
Procedure: as §1, §2, §3, §4

[12] = MTT cell viability assay; format: cell-based
Procedure: The study was performed using three cell lines – H9c2(2-1) cardiomyoblasts (CRL-1446™), HepaRG hepatocytes (HPRGC10), and HaCaT keratinocytes (300493) – delivered as frozen vials by ATCC (Lomianki, Poland), ThermoFisher Scientific (Waltham, MA, USA), and CLS Cell Lines Service GmbH (Eppelheim, Germany), respectively. H9c2(2-1) and HaCaT cells were grown in DMEM, while HepaRG cells were cultured in William’s E Medium containing insulin from bovine pancreas (at a final concentration of 4 µg/mL) and hydrocortisone 21-hemisuccinate sodium salt (at a final concentration of 50 µM). Both media were supplemented with 10% FCS and 1% antibiotics (penicillin 100 U/mL and streptomycin 100 µg/mL). The cells were cultured at 37 ^∘C and 5% CO2, in a humidified incubator for cell culture, presenting normal proliferation during the experiments.
The impact of all tested compounds (1, 10, 25, 50, and 100 µM) on the viability of H9c2(2-1), HepaRG, and HaCaT cells was assessed using the MTT method which was performed according to a previous publication. Briefly, the cells cultured in 96-well plates were exposed to SIL, SIL-O, and SIL-L for 24 h. At the end of the treatment, the culture medium containing SIL, SIL-O, and SIL-L was removed and replaced with 100 µL/well of the specific culture media for the used cell lines (DMEM for H9c2(2-1) cells and HaCaT; William’s E Medium for HepaRG). Then, 10 µL of MTT reagent was added in every well, followed by 3 h of incubation of the plates at 37 ^∘C. The absorbance measurements were performed at 570 and 630 nm on Cytation 5 Microplate Reader (BioTek Instruments Inc., Winooski, VT, USA) following the addition of the MTT solubilization solution (a volume of 100 µL/well), and the plates’ incubation at room temperature for 30 min, protected from light.

CCCCCCCCCCCCOS(=O)(=O)[O-].[Na+] [SDS 1%, sodium dodecyl sulfate]
IS value (irritation score) ([1]; 5 min): 19.74
Observation (irritant classification) ([1]; based on IS value): Strong irritant

CCCCCCCC/C=C\CCCCCCCC(=O)Oc1c(-c2ccc(O)c(O)c2)oc2cc(O)cc(O)c2c1=O [quercetin-3-oleate]
enhancement in wound healing compared to control ([2]; 0.1 µM (first concentration listed)): 47%
enhancement in wound healing compared to control ([2]; 0.1 µM (second concentration listed)): 35%
enhancement in wound healing compared to control ([2]; 1 µM): 51%

COc1cc(C2Oc3cc([C@H]4Oc5cc(O)cc(O)c5C(=O)[C@@H]4O)ccc3OC2CO)ccc1O (some centres unmarked) [SIL, Silibinin]
stability [3]: unstable
effect on migration ([4]; 25 µM, compared to control): significant inhibition
effect on migration ([4]; 1 and 10 µM): neither SIL, nor SIL-O or SIL-L affected
effect on viability [5]: significantly decreased the viability
cytotoxicity [6]: no cytotoxic effect
apoptotic index (AI) [7]: no significant changes
effect on migratory properties [8]: inhibitory effect
cytotoxicity [9]: not cytotoxic
migration rate ([10]; 10 µM): around 50%
migration rate ([10]; 25 µM): around 50%
migration rate ([11]; 1 µM): 105.34%
migration rate ([11]; 25 µM): 119.8%
viability at 24 h ([12]; human, HepaRG hepatocytes, higher concentrations (reduction up to), normalized to control): ~80%
viability at 24 h, 1 µM ([12]; rat, H9c2(2-1) cardiomyoblasts, 1 µM, normalized to control): 128%
viability at 24 h, 100 µM ([12]; rat, H9c2(2-1) cardiomyoblasts, all tested concentrations (1, 10, 25, 50, 100 µM), compared to control): > 100%
